This note sets out measurements from patent US9149469B2, “Pharmaceutical composition and a process thereof” (INDUS Biotech PVT. Ltd., priority 2007, dated 2015).

In test [1] the test system is oxotremorine induced tremors. Put plainly: Oxotremorine antagonism (tremor, salivation, lacrimation scores). Format: in vivo, NMRI mice. How it is done:
Oxotremorine is a cholinergic drug which is a muscarine agonist and induces parkinsonism-like signs such as tremors, ataxia, spasticity, salivation, lacrimation and hypothermia. Oxotremorine is a cholinergic drug, which induces excessive tremors in mice. If a drug is having anti-cholinergic property like atropine the tremors will be decreased.
Procedure: Groups of 6-10 male NMRI mice weighing 18-22 g are used. They are dosed orally with the test compound or the standard (5 mg/kg benezatropine mesilate) 1 hour prior to the administration of 0.5 mg/kg oxotremorine. Tremor is scored after oxotremorine dosage in periods of 5 min for 1 hour.
After the administration of 0.5 mg/kg of Oxotremorine, the tremors started within 15 mins and were sustained for 30 mins.

Test [2] concerns 6-OHDA unilateral lesion of the dopaminergic nigrostriatal pathway. As to the kind of experiment: 6-Hydroxydopamine model (rotation). It counts as in vivo, Male Wistar mice. How it is done: 6-Hydroxydopamine (6-OHDA) is a neurotoxin which causes a unilateral lesion of the dopaminergic nigrostriatal pathway that induces hypersensitivity of the post synaptic dopaminergic receptor in the striatum of the lesioned side. An indirect acting compound like amphetamine is administered the mice rotate toward the lesioned side (ipsilateral) as opposed to when a direct acting dopaminergic drug is administered which causes then to rotate contra laterally. Therefore, this test can be used for the study of central dopamine function and the evaluation of dopamine antagonists and agonists, particularly the activity of novel anti-parkinsonian drugs. This test clearly distinguishes drugs with predominantly dopamine receptor agonist activity from those with predominantly dopamine releasing activity of the drug.
Procedure: Male Wistar […] weighing 200-250 grams at the time of surgery are used. They are housed individually in a controlled environment with free access to food and water. The animals are anaesthetized with sodium pentobarbital. The head is placed in a stereotaxic device (DKI 900) and positioned according to the atlas of Konig and Klippel. After a sagittal cut is made in the skin of the skull, a 2 mm wide hole is drilled with an electrical trepan drill. Care is taken not to lesion the meninges. A 30 gauge stainless-steel cannula connected to a Hamilton syringe is aimed at the anterior zona compacta of the substantia nigra (coordinates anterior 1.88 mm, lateral 2.0 mm and dorso-ventral—8.2 mm from instrument zero). A total of 8 μg of […] in 4 γ/L of saline is injected at a rate of 1 γ/L/min. After the intra-cranial injection, the wound is closed.
The animal is allowed several weeks for recovery and for development of the lesion. Specially constructed opaque plastic spheres attached to solid state programming equipment serve as test chambers. The number of full turns, either ipsilateral or contra lateral to the lesion, are recorded on an automatic printout counter every 15 min for one or two hours test sessions. To determine the control values for ipsilateral turning, each subject is administered 2.5 mg/kg of d amphetamine and immediately placed in the circling chamber for 2 hours Control values for contra lateral circling are determined by injecting apomorphine at 1 mg/kg s.c. and recording the rat's circling for 1 hour. Test compounds are given i.p or sc. And the animals placed into the circling chambers. Circling is recorded over a 1 hour period. This experiment is conducted in 30 animals and the average is represented in the table

The subject of test [3] is Haloperidol induced catalepsy. Put plainly: Haloperidol induced catalepsy in mice (bar test). Format: in vivo, Swiss Albino mice. An excerpt: Haloperidol is neuroleptic agent that blocks the Dopamine D2 receptor in the brain. This precipitates the extra-pyramidal side effects which can be measured by the “Bar Test for catalepsy in mice”. Catalepsy in mice is defined as a failure to correct an externally imposed unusual posture over a prolonged period of time. […] Haloperidol induced catalepsy can be reversed if dopaminergic drugs that supply dopamine to the striatum of the brain since it increase competitive antagonism.
Procedure: Swiss Albino mice of either sex weighing 23-28 g are used. Catalepsy was induced by Haloparidol (0.5 mg/kg i.p.) and assessed by bar test up to 3 hrs. Six animals are dosed with the saline, test drug and the standard intraperitonially. The animals are placed in translucent plastic boxes with a wooden dowel mounted horizontally 2.5 cm from the floor of the box. The animals are allowed to adapt to the box for 2 min. Then, each animal is grasped gently around the shoulders and under the forepaws and placed carefully on the dowel. The amount of the time spent with at least one forepaw on the bar is determined. When the animal removes its paws, the time is recorded and the mice are repositioned on the bar. Three trials are conducted for each animal at 30, 60, 120 and 360 min, with 6 animals in each group.

The mark [4] stands for this setting: positive control 5 mg/kg and oxytremorine, n = 6.

With `CN1[C@@H]2CC[C@H]1C[C@@H](OC(=O)C(CO)c1ccccc1)C2` (stereo partly shown) [Atropine], the “decrease in severity of tremors” value in test [1] (Atropine 1 mg/kg, FIG. 2) was “significant decrease in severity of tremors”. Further, in test [1] (Atropine, dose not given), the “Lacrimation score at 30 minutes” value worked out at 0.6 and the “Salivation score at 30 minutes” value was 0.8. For the same compound, in test [1] (setting [4]), the “Tremor score 5 minutes” value is 0.9, the “Tremor score 15 minutes” value is 0.9, the “Tremor score 30 minutes” value turned out to be 1.0 and the “Tremor score 45 minutes” value stood at 1.3.

On to `CN1CCc2cccc3c2[C@H]1Cc1ccc(O)c(O)c1-3` [Apomorphine], for which, in test [2] (Apomorphine 0.3 mg/kg), the “Contra-lateral Rotation” value was determined as 169.33 and the “Ipsilateral Rotation” value was determined as 0.67.

Take `N[C@@H](Cc1ccc(O)c(O)c1)C(=O)O` [L-Dopa, Dihydroxy Phenyl Alanine]: the reduction of catalepsy entry in test [3] (L-DOPA (10)+Hal (0.5) compared with Hal (0.5) at respective time, FIG. 1) is “significant at P<0.001”. In test [3] (L-Dopa 10 mg/kg compared with test drug 100 mg/kg), the “reducing catalepsy, standard versus test drug” value is reported as “more effective than the test drug at a dosage of 100 mg/kg”. Also, in test [2] (L-Dopa 10 mg/kg), the “Contra-lateral Rotation” value was 45.67 and the “Ipsilateral Rotation” value is 0.83.
